{"source": "paper PMC10904284", "about": "(iScience, 2024)", "target": "CLso STP (Candidatus Liberibacter solanacearum, UniProt A0A094YYW1)", "sequence (A0A094YYW1 1-207)": "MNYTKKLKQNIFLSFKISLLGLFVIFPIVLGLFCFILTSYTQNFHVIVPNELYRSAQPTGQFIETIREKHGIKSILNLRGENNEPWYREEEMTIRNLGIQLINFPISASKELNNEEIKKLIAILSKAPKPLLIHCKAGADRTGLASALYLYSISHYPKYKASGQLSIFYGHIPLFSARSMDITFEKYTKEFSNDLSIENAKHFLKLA", "assay_type": "binding", "data": [{"substance": "Glucose 6-phosphate [G6P]", "values": [{"measurement": "Ka", "result": 17.58, "unit": "M⁻¹ s⁻¹"}]}]}
